In one assay the target is T1, TRAF6/Uev1A/Ubc13 (Homo sapiens, UniProt Q9Y4K3).
T1 sequence (Q9Y4K3 1-522): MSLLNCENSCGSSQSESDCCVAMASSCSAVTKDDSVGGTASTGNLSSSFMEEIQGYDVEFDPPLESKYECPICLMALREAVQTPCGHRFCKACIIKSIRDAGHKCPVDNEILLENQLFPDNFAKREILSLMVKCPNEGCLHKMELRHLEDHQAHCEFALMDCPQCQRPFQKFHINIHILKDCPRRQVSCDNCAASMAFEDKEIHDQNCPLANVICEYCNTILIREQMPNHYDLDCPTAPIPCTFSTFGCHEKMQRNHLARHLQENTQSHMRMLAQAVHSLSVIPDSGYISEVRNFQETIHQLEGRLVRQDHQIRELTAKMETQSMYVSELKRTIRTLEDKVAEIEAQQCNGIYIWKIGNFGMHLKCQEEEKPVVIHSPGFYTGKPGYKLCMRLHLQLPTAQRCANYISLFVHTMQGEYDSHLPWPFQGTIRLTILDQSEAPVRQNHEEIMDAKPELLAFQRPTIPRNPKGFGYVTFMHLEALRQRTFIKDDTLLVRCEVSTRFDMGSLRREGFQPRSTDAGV
Put plainly: TRAF6/Uev1A/Ubc13 plate-based ubiquitin ligase assay. It counts as biochemical. The protocol:
For the assays described below, the TRAF6/Uev1A/UBC13 assay is the biochemical plate-based assay of TRAF6 ligase activity using Ubc13 as the E2 enzyme. The gel-based assay is the biochemical solution-based TRAF6 ligase assay (by SDS-PAGE and Western blot) to confirm the plate-based ELISA assay. The APC assay is an assay which is another E3 ligase (APC2/APC11) biochemical assay.
A 96-well Ni-plate was blocked with 100 μl of 1% casein in PBS for 1 hour at room temperature. The plates were then washed three times with 200 μl of 1×PBS and 80 μl of a reaction buffer was added per well which contained 50 ng of Flag-ubiquitin, 50 ng of His-ubiquitin, 62.5 mM Tris pH 7.5, 6.25 mM MgCl2, 1.0 mM DTT, and 2 μM ATP. To each well was added 10 μl of a solution of the compound in DMSO. The reaction was started by adding 10 μl of a solution consisting of 10 ng human E1, 25 ng each of Uev1a and Ubc13, and 100 ng TRAF6 in the reaction buffer. The plates were shaken for 10 minutes and incubate at room temperature for 1 hour. After the incubation, the plates were washed three times with 200 μl 1×PBS in 0.05% Tween and 100 μl of an antibody mix consisting of anti-Flag (1:30,000 dilution; Sigma F-3165) and anti-Mouse IgG-HRP (1/150,000 dilution; Jackson Immunoresearch #115-035-146) in 1×PBS with 0.25% BSA. The plates were then incubated for another 1 hour at room temperature, and after incubation the plate was washed three times with 200 μl 1×PBS with 0.05% Tween. The amount of ubiquitin was measured by adding 100 μl of Lumino substrate (1:5 dilution) and reading the luminescence with a fluorimeter.
Table 2 below illustrates the inhibitory activity of the compounds of the invention determined by the TRAF6/Uev1A/Ubc13 assay as well as in the ICAM, APC and the ROC1/CUL1 Ubiquitin Ligase Assay (SCF Assay). The IC50 values were determined using a various concentrations of the compounds.

The subject of another assay is A549 cells. Put plainly: Cell proliferation PAD assay, A549. It counts as cell-based. Particulars: Homo sapiens, 48 hours. The protocol:
(§1) Cell lines used are available from American Type Culture Collection (ATCC), for example, cell cultures containing A549 (ATCC# CCL-185), HeLa (ATCC# CCL-2), HCT116 ATTC# CCL-247), and H1299 (ATCC# CRL-5803) cells were maintained in T175 flasks following the ATCC recommended media and handling procedures. […] A 20,000 cells/ml solution was made for plating. Cells were plated in black Packard 96 well plates by placing 100 μl per well (2,000 cells per well). […] The definitions of the cell types used are as follows: A549 is lung carcinoma; HI 299 is non-small cell lung carcinoma; HI 155 is non-small cell lung carcinoma; AsPC-1 is pancreatic adenocarcinoma; Caov-3 is ovarian adenocarcinoma; COLO 205 is colorectal adenocarcinoma; DLD-1 colorectal adenocarcinoma; HCT116 is colorectal carcinoma; DU 145 is prostate carcinoma; ES-2 is ovarian clear cell carcinoma; H460 is large cell lung carcinoma; HELA is cervical adenocarcinoma; MIA PaCa-2 is pancreatice carcinoma; OVCAR-3 is ovarian adenocarcinoma; OVCAR8 is ovarian carcinoma; PC3 is prostate adenocarcinoma; SK-OV-3 is ovarian adenocarcinoma; SU86.86 is pancreatic carcinoma; TOV-21G is avarian clear cell carcinoma; U2OS is bone osteosarcoma; is ASPC-I is pancreatic adenocarcinoma; BXPC-3 is pabcreatic adenocarcinoma; HL60 is promyeloblast promyelocytic leukemia; K562 is bone marrow chronic myelogenous leukemia; L1210 is mouse lymphocytic leukemia; MOLT3 is T lymphoblast acute lymphoblastic leukemia; MOLT4 is T lymphoblast acute lymphoblastic leukemia; SW620 is colorectal adenocarcinoma; THP-1 is monocyte acute monocytic leukemia; U937 is histiocytic lymphoma; and UACC-257 is melanoma.
(§2) Compounds and additional media were added 24 hours after cell plating. […] All compound testing was done in duplicate using 6.3 fold dilutions starting with 10 mM. […] Taxol and at least one additional control were run on all plates. Three microliters of the compound master plate were added to deep well blocks containing 750 μl of RPMI media. One hundred microliters were transferred from the compound/media deep well blocks to the plated cells resulting in a 500 fold dilution of the compounds. Cells were grown at 37° C., 5% CO2 for 48 hours.
(§3) Cells to be analyzed by photography were fixed and stained. One hundred microliters of media were removed and 100 μl of 9.3% formamide was added to each well. Plates were left on the benchtop for 45 minutes. A staining solution containing 1.55 μl of 1 mg/ml DAPI added to 18.75 ml PBS was warmed for 15 minutes at 37° C. The cells were aspirated prior to washing with 100 μl of PBS. Seventy microliters of PBS were aspirated and 170 μl of the DAPI solution were added to each well of fixed cells. Plates were left at room temperature for one hour then aspirated and washed twice with 100 μl of PBS. The stained cells were left at 4° C. for a minimum of 16 hours before photographic analysis with Array Scan II (Cellomics). Analysis of the photographic images to determine numbers of live cells (proliferation), apoptotic cells and dead cells, were according to the methods described in U.S. Utility patent application Ser. No. 10/652,440, which incorporated herein in its entirety.

For a further assay, the system named is H1299 cells. Put plainly: Cell proliferation PAD assay, H1299. It counts as cell-based. The note with it: Homo sapiens, 48 hours. The procedure:
as §1, §2, §3

Setting [1] is: NCI-H1299, 6pt, read-out: H1299 6pt.
The mark [2] stands for this setting: NCI-H1299, 3pt, read-out: H1299 3pt.

SMILES strings stand for the structures. Read-outs that look alike come from different tables or passages of the source.

As for `COC(=O)c1ccc(Nc2ccc3nonc3c2S(=O)(=O)Nc2ccc(C(=O)OC)cc2)cc1` [compound 10, methyl 4-{[(5-{[4-(methoxycarbonyl)phenyl]amino}-2,1,3-benzoxadiazol-4-yl)sulfonyl]amino}benzoate], the IC50 is at least 20 µM on TRAF6/Uev1A/Ubc13; at least 20 µM in the assay with A549 cells (6pt, read-out: A549 6pt); at least 20 µM with H1299 cells (setting [1]).
Consider `O=S(=O)(Nc1cccc2cnccc12)c1cccc2nonc12` [compound 12, N-isoquinolin-5-yl-2,1,3-benzoxadiazole-4-sulfonamide], for which the IC50 against TRAF6/Uev1A/Ubc13 is at least 20 µM; in the assay on A549 cells (3pt, read-out: A549 3pt), at least 20 µM; with H1299 cells (setting [2]), at least 20 µM.
Turning to `Cc1ccc(F)cc1NS(=O)(=O)c1cccc2nonc12` [compound 13, N-(5-fluoro-2-methylphenyl)-2,1,3-benzoxadiazole-4-sulfonamide], the IC50 against TRAF6/Uev1A/Ubc13 was at least 20 µM; with A549 cells (3pt, read-out: A549 3pt), at least 20 µM; in the assay on H1299 cells (setting [2]) it was at least 20 µM.
For `O=S(=O)(Nc1ccc(Oc2ncc(C(F)(F)F)cc2Cl)cc1)c1cccc2nonc12` [compound 62, N-(4-{[3-chloro-5-(trifluoromethyl)pyridin-2-yl]oxy}phenyl)-2,1,3-benzoxadiazole-4-sulfonamide], the IC50 against TRAF6/Uev1A/Ubc13 is at least 20 µM; in the assay with A549 cells (3pt, read-out: A549 3pt), at least 20 µM; with H1299 cells (setting [2]) it was at least 20 µM.
On to `CC(C)(C)OC(=O)N1CCN(c2ccc([N+](=O)[O-])c3nonc23)CC1` [compound 72, Tert-butyl 4-(7-nitro-2,1,3-benzoxadiazol-4-yl)piperazine-1-carboxylate], for which the IC50 at TRAF6/Uev1A/Ubc13 is at least 20 µM; with A549 cells (3pt, read-out: A549 3pt) it was at least 20 µM; with H1299 cells (setting [2]), at least 20 µM.
For the compound `O=S(=O)(Nc1cccc2nonc12)c1ccc(Oc2ccncc2)cc1` [compound 80, N-2,1,3-benzoxadiazol-4-yl-4-(pyridin-4-yloxy)benzenesulfonamide], the IC50 against TRAF6/Uev1A/Ubc13 was at least 20 µM; with A549 cells (3pt, read-out: A549 3pt), at least 20 µM; with H1299 cells (setting [2]), at least 20 µM.
As for `O=S(=O)(c1cccc2nonc12)N1CCN(c2ncccn2)CC1` [compound 130, 4-[(4-pyrimidin-2-ylpiperazin-1-yl)sulfonyl]-2,1,3-benzoxadiazole], the IC50 in the assay with A549 cells (3pt, read-out: A549 3pt) is at least 20 µM; in the assay with H1299 cells (setting [2]), at least 20 µM.
Turning to `O=S(=O)(c1cccc2nonc12)N1CCN(c2cnccn2)CC1` [compound 131, 4-[(4-pyrazin-2-ylpiperazin-1-yl)sulfonyl]-2,1,3-benzoxadiazole], the IC50 with A549 cells (3pt, read-out: A549 3pt) is at least 20 µM; in the assay with H1299 cells (setting [2]) it was at least 20 µM.
On to `O=S(=O)(c1cccc2nonc12)N1CCN(c2ccc(Cl)c(C(F)(F)F)c2)CC1` [compound 132, 4-({4-[4-chloro-3-(trifluoromethyl)phenyl]piperazin-1-yl}sulfonyl)-2,1,3-benzoxadiazole], for which the IC50 with A549 cells (3pt, read-out: A549 3pt) is at least 20 µM; in the assay on H1299 cells (setting [2]), at least 20 µM.
Take `CSc1ccc(-c2ccc([N+](=O)[O-])c3nonc23)cc1` [compound 318, 7-[4-(Methylthio)phenyl]-4-nitro-2,1,3-benzoxadiazole]: the IC50 was under 1 µM with A549 cells (6pt, read-out: A549 6pt) and under 1 µM in the assay on H1299 cells (setting [1]).
For `COc1cccc(-c2ccc([N+](=O)[O-])c3nonc23)c1` [compound 319, 7-(3-Methoxyphenyl)-4-nitro-2,1,3-benzoxadiazole], the IC50 with A549 cells (6pt, read-out: A549 6pt) was under 1 µM; in the assay with H1299 cells (setting [1]) it was under 1 µM.
On to `O=[N+]([O-])c1ccc(-c2cccc(F)c2)c2nonc12` [compound 320, 7-(3-Fluorophenyl)-4-nitro-2,1,3-benzoxadiazole], for which the IC50 with A549 cells (6pt, read-out: A549 6pt) is 1 to 20 µM; with H1299 cells (setting [1]), under 1 µM.
For `Cc1cc(C)cc(-c2cc(Cl)c3nonc3c2)c1` [compound 322, 4-Chloro-6-[3,5-(dimethyl)phenyl]-2,1,3-benzoxadiazole] the same measures were at least 20 µM and at least 20 µM.
For `Cc1cc(C)cc(-c2cc(-c3cc(C)cc(C)c3)c3nonc3c2)c1` [compound 323, 4,6-bis[3,5-(dimethyl)phenyl]-2,1,3-benzoxadiazole] the same measures were at least 20 µM and at least 20 µM.
As to `Fc1cc(F)cc(-c2cc(Cl)c3nonc3c2)c1` [compound 324, 4-Chloro-6-[3,5-(difluoro)phenyl]-2,1,3-benzoxadiazole], the IC50 is at least 20 µM with A549 cells (6pt, read-out: A549 6pt) and at least 20 µM in the assay on H1299 cells (setting [1]).
On to `FC(F)(F)c1cccc(-c2cc(Cl)c3nonc3c2)c1` [compound 325, 4-Chloro-6-[3-(trifluoromethyl)phenyl]-2,1,3-benzoxadiazole], for which the IC50 in the assay on A549 cells (6pt, read-out: A549 6pt) was at least 20 µM; in the assay on H1299 cells (setting [1]), at least 20 µM.
For the compound `Cc1cccc(-c2cc(Cl)c3nonc3c2)c1` [compound 326, 4-Chloro-6-(3-methylphenyl)-2,1,3-benzoxadiazole], the IC50 in the assay with A549 cells (6pt, read-out: A549 6pt) was at least 20 µM; in the assay with H1299 cells (setting [1]), at least 20 µM.
In the case of `FC(F)(F)c1ccc(-c2cc(Cl)c3nonc3c2)cc1` [compound 327, 4-Chloro-6-[4-(trifluoromethyl)phenyl]-2,1,3-benzoxadiazole], the IC50 with A549 cells (6pt, read-out: A549 6pt) is at least 20 µM; in the assay on H1299 cells (setting [1]), at least 20 µM.
For the compound `COc1cccc(-c2cc(Cl)c3nonc3c2)c1` [compound 328, 4-Chloro-6-(3-methoxyphenyl)-2,1,3-benzoxadiazole], the IC50 in the assay on A549 cells (6pt, read-out: A549 6pt) is at least 20 µM; with H1299 cells (setting [1]) it was at least 20 µM.
As for `CC(C)(C)c1ccc(-c2cc(Cl)c3nonc3c2)cc1` [compound 329, 4-Chloro-6-(4-(tert-butyl)phenyl)-2,1,3-benzoxadiazole], the IC50 in the assay on A549 cells (6pt, read-out: A549 6pt) was at least 20 µM; with H1299 cells (setting [1]), at least 20 µM.

Source of the values: patent publication US20050282818A1, “Ubiquitin ligase inhibitors” (Rigel Pharmaceuticals, Inc., priority 2004, published 2005).
